Results reported in patent publication US11807835B2, “Detergent compositions containing a stabilized enzyme by phosphonates” (ECOLAB USA INC., priority 2016, dated 2023).

Assays:
protease = assay: Protease activity retention in detergent use solution (4000 ppm, 5 GPG water; peptidyl substrate, glycine buffer pH 9.0); format: biochemical; settings: for Relative Protease Enzyme Activity: use solution at 120° F.
Method in brief: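 Detergent use solutions at 4000 ppm in 5 GPG water were held at 120° F with stirring and sampled up to 4 h, with aliquots flash-frozen. Activity was read on a peptidyl substrate in glycine buffer pH 9.0 by absorbance against a calibration curve. Retention is % activity relative to the t=0 sample.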

amylase = assay: Amylase activity retention in detergent use solution (4000 ppm, 5 GPG water; ethylidene substrate EPS, HEPES buffer pH 8.0); format: biochemical
Method in brief: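 Detergent use solution at 4000 ppm in 5 GPG water held at 120° F.; aliquots taken up to 4 h, flash-frozen, then assayed with p-nitrophenyl valerate in TRIS pH 8.0 (lipase) or EPS substrate in HEPES pH 8.0 (amylase). Retention given as % activity relative to t=0.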

Structure (SMILES): O=C(O)CCC(CC(=O)O)(C(=O)O)P(=O)(O)O (stereo not shown) [PBTC, Phosphonebutane tricarboxylic acid]
- Relative Protease Enzyme Activity (protease; All Ash formula, phosphonate 0.3 wt-%, time 0 min): 100.00%
- Relative Protease Enzyme Activity (protease; All Ash formula, phosphonate 0.3 wt-%, time 5 min): 11.99%
- Relative Protease Enzyme Activity (protease; All Ash formula, phosphonate 0.3 wt-%, time 10 min): 3.18%
- Relative Protease Enzyme Activity (protease; All Ash formula, phosphonate 0.3 wt-%, time 20 min): −0.81%
- Relative Protease Enzyme Activity (protease; All Ash formula, phosphonate 0.3 wt-%, time 40 min): −1.79%
- Relative Protease Enzyme Activity (protease; All Ash formula, phosphonate 0.3 wt-%, time 60 min): −1.94%
- Relative Protease Enzyme Activity (protease; All Ash formula, phosphonate 0.3 wt-%, time 90 min): −1.57%
- Relative Protease Enzyme Activity (protease; All Ash formula, phosphonate 0.3 wt-%, time 120 min): −1.11%
- Relative Protease Enzyme Activity (protease; All Ash formula, phosphonate 0.3 wt-%, time 150 min): −1.04%
- Relative Protease Enzyme Activity (protease; All Ash formula, phosphonate 0.3 wt-%, time 180 min): −2.62%
- Relative Protease Enzyme Activity (protease; All Ash formula, phosphonate 0.3 wt-%, time 210 min): −3.07%
- Relative Protease Enzyme Activity (protease; All Ash formula, phosphonate 0.3 wt-%, time 240 min): −2.02%
- Relative Protease Enzyme Activity (protease; base formula, phosphonate 0.3 wt-%, time 0 min): 100.00%
- Relative Protease Enzyme Activity (protease; base formula, phosphonate 0.3 wt-%, time 5 min): 52.04%
- Relative Protease Enzyme Activity (protease; base formula, phosphonate 0.3 wt-%, time 10 min): 30.98%
- Relative Protease Enzyme Activity (protease; base formula, phosphonate 0.3 wt-%, time 20 min): 14.75%
- Relative Protease Enzyme Activity (protease; base formula, phosphonate 0.3 wt-%, time 40 min): 7.33%
- Relative Protease Enzyme Activity (protease; base formula, phosphonate 0.3 wt-%, time 60 min): 5.15%
- Relative Protease Enzyme Activity (protease; base formula, phosphonate 0.3 wt-%, time 90 min): 4.01%
- Relative Protease Enzyme Activity (protease; base formula, phosphonate 0.3 wt-%, time 120 min): 2.91%
- Relative Protease Enzyme Activity (protease; base formula, phosphonate 0.3 wt-%, time 150 min): 2.21%
- Relative Protease Enzyme Activity (protease; base formula, phosphonate 0.3 wt-%, time 180 min): 1.52%
- Relative Protease Enzyme Activity (protease; base formula, phosphonate 0.3 wt-%, time 210 min): 1.01%
- Relative Protease Enzyme Activity (protease; base formula, phosphonate 0.3 wt-%, time 240 min): 0.63%
- Relative Protease Enzyme Activity (protease; base formula, phosphonate 0.6 wt-%, time 0 min): 100.00%
- Relative Protease Enzyme Activity (protease; base formula, phosphonate 0.6 wt-%, time 5 min): 60.27%
- Relative Protease Enzyme Activity (protease; base formula, phosphonate 0.6 wt-%, time 10 min): 35.81%
- Relative Protease Enzyme Activity (protease; base formula, phosphonate 0.6 wt-%, time 20 min): 16.27%
- Relative Protease Enzyme Activity (protease; base formula, phosphonate 0.6 wt-%, time 40 min): 7.44%
- Relative Protease Enzyme Activity (protease; base formula, phosphonate 0.6 wt-%, time 60 min): 4.84%
- Relative Protease Enzyme Activity (protease; base formula, phosphonate 0.6 wt-%, time 90 min): 2.96%
- Relative Protease Enzyme Activity (protease; base formula, phosphonate 0.6 wt-%, time 120 min): 1.76%
- Relative Protease Enzyme Activity (protease; base formula, phosphonate 0.6 wt-%, time 150 min): 1.32%
- Relative Protease Enzyme Activity (protease; base formula, phosphonate 0.6 wt-%, time 180 min): 0.91%
- Relative Protease Enzyme Activity (protease; base formula, phosphonate 0.6 wt-%, time 210 min): 0.70%
- Relative Protease Enzyme Activity (protease; base formula, phosphonate 0.6 wt-%, time 240 min): 0.39%
- Relative Protease Enzyme Activity (protease; base formula, phosphonate at 0.1% elemental phosphorus, time 0 min): 100.00%
- Relative Protease Enzyme Activity (protease; base formula, phosphonate at 0.1% elemental phosphorus, time 5 min): 86.68%
- Relative Protease Enzyme Activity (protease; base formula, phosphonate at 0.1% elemental phosphorus, time 10 min): 55.40%
- Relative Protease Enzyme Activity (protease; base formula, phosphonate at 0.1% elemental phosphorus, time 20 min): 23.91%
- Relative Protease Enzyme Activity (protease; base formula, phosphonate at 0.1% elemental phosphorus, time 40 min): 8.20%
- Relative Protease Enzyme Activity (protease; base formula, phosphonate at 0.1% elemental phosphorus, time 60 min): 4.68%
- Relative Protease Enzyme Activity (protease; base formula, phosphonate at 0.1% elemental phosphorus, time 90 min): 2.99%
- Relative Protease Enzyme Activity (protease; base formula, phosphonate at 0.1% elemental phosphorus, time 120 min): 2.04%
- Relative Protease Enzyme Activity (protease; base formula, phosphonate at 0.1% elemental phosphorus, time 150 min): 1.54%
- Relative Protease Enzyme Activity (protease; base formula, phosphonate at 0.1% elemental phosphorus, time 180 min): 1.01%
- Relative Protease Enzyme Activity (protease; base formula, phosphonate at 0.1% elemental phosphorus, time 210 min): 0.73%
- Relative Protease Enzyme Activity (protease; base formula, phosphonate at 0.1% elemental phosphorus, time 240 min): 0.42%
- enzyme activity of amine salt of the phosphonate versus non-neutralized phosphonate (protease; phosphonate neutralized with an amine, such as triethanolamine): much improved enzyme activity
- Relative Amylase Enzyme Activity (amylase; All Ash formula, phosphonate 0.3 wt-%, use solution at 120° F., time 0 min): 98.88%
- Relative Amylase Enzyme Activity (amylase; All Ash formula, phosphonate 0.3 wt-%, use solution at 120° F., time 5 min): 100.00%
- Relative Amylase Enzyme Activity (amylase; All Ash formula, phosphonate 0.3 wt-%, use solution at 120° F., time 10 min): 94.76%
- Relative Amylase Enzyme Activity (amylase; All Ash formula, phosphonate 0.3 wt-%, use solution at 120° F., time 20 min): 90.04%
- Relative Amylase Enzyme Activity (amylase; All Ash formula, phosphonate 0.3 wt-%, use solution at 120° F., time 40 min): 63.67%
- Relative Amylase Enzyme Activity (amylase; All Ash formula, phosphonate 0.3 wt-%, use solution at 120° F., time 60 min): 58.65%
- Relative Amylase Enzyme Activity (amylase; All Ash formula, phosphonate 0.3 wt-%, use solution at 120° F., time 90 min): 54.03%
- Relative Amylase Enzyme Activity (amylase; All Ash formula, phosphonate 0.3 wt-%, use solution at 120° F., time 120 min): 45.38%
- Relative Amylase Enzyme Activity (amylase; All Ash formula, phosphonate 0.3 wt-%, use solution at 120° F., time 150 min): 44.40%
- Relative Amylase Enzyme Activity (amylase; All Ash formula, phosphonate 0.3 wt-%, use solution at 120° F., time 180 min): 41.15%
- Relative Amylase Enzyme Activity (amylase; All Ash formula, phosphonate 0.3 wt-%, use solution at 120° F., time 210 min): 41.56%
- Relative Amylase Enzyme Activity (amylase; All Ash formula, phosphonate 0.3 wt-%, use solution at 120° F., time 240 min): 40.40%
- Relative Amylase Enzyme Activity (amylase; base formula, phosphonate 0.3 wt-%, use solution at 120° F., time 0 min): 100.00%
- Relative Amylase Enzyme Activity (amylase; base formula, phosphonate 0.3 wt-%, use solution at 120° F., time 5 min): 96.90%
- Relative Amylase Enzyme Activity (amylase; base formula, phosphonate 0.3 wt-%, use solution at 120° F., time 10 min): 94.03%
- Relative Amylase Enzyme Activity (amylase; base formula, phosphonate 0.3 wt-%, use solution at 120° F., time 20 min): 86.69%
- Relative Amylase Enzyme Activity (amylase; base formula, phosphonate 0.3 wt-%, use solution at 120° F., time 40 min): 83.68%
- Relative Amylase Enzyme Activity (amylase; base formula, phosphonate 0.3 wt-%, use solution at 120° F., time 60 min): 86.51%
- Relative Amylase Enzyme Activity (amylase; base formula, phosphonate 0.3 wt-%, use solution at 120° F., time 90 min): 84.89%
- Relative Amylase Enzyme Activity (amylase; base formula, phosphonate 0.3 wt-%, use solution at 120° F., time 120 min): 85.85%
- Relative Amylase Enzyme Activity (amylase; base formula, phosphonate 0.3 wt-%, use solution at 120° F., time 150 min): 76.25%
- Relative Amylase Enzyme Activity (amylase; base formula, phosphonate 0.3 wt-%, use solution at 120° F., time 180 min): 81.01%
- Relative Amylase Enzyme Activity (amylase; base formula, phosphonate 0.3 wt-%, use solution at 120° F., time 210 min): 81.99%
- Relative Amylase Enzyme Activity (amylase; base formula, phosphonate 0.3 wt-%, use solution at 120° F., time 240 min): 81.88%
- Relative Amylase Enzyme Activity (amylase; base formula, phosphonate 0.6 wt-%, use solution at 120º F., time 0 min): 100.00%
- Relative Amylase Enzyme Activity (amylase; base formula, phosphonate 0.6 wt-%, use solution at 120º F., time 5 min): 107.86%
- Relative Amylase Enzyme Activity (amylase; base formula, phosphonate 0.6 wt-%, use solution at 120º F., time 10 min): 111.05%
- Relative Amylase Enzyme Activity (amylase; base formula, phosphonate 0.6 wt-%, use solution at 120º F., time 20 min): 106.52%
- Relative Amylase Enzyme Activity (amylase; base formula, phosphonate 0.6 wt-%, use solution at 120º F., time 40 min): 73.11%
- Relative Amylase Enzyme Activity (amylase; base formula, phosphonate 0.6 wt-%, use solution at 120º F., time 60 min): 79.10%
- Relative Amylase Enzyme Activity (amylase; base formula, phosphonate 0.6 wt-%, use solution at 120º F., time 90 min): 71.11%
- Relative Amylase Enzyme Activity (amylase; base formula, phosphonate 0.6 wt-%, use solution at 120º F., time 120 min): 64.98%
- Relative Amylase Enzyme Activity (amylase; base formula, phosphonate 0.6 wt-%, use solution at 120º F., time 150 min): 74.97%
- Relative Amylase Enzyme Activity (amylase; base formula, phosphonate 0.6 wt-%, use solution at 120º F., time 180 min): 85.22%
- Relative Amylase Enzyme Activity (amylase; base formula, phosphonate 0.6 wt-%, use solution at 120º F., time 210 min): 94.67%
- Relative Amylase Enzyme Activity (amylase; base formula, phosphonate 0.6 wt-%, use solution at 120º F., time 240 min): 97.07%
- Relative Amylase Enzyme Activity (amylase; base formula, phosphonate at 0.1% elemental phosphorus level, use solution at 120º F., time 0 min): 90.07%
- Relative Amylase Enzyme Activity (amylase; base formula, phosphonate at 0.1% elemental phosphorus level, use solution at 120º F., time 5 min): 100.00%
- Relative Amylase Enzyme Activity (amylase; base formula, phosphonate at 0.1% elemental phosphorus level, use solution at 120º F., time 10 min): 98.00%
- Relative Amylase Enzyme Activity (amylase; base formula, phosphonate at 0.1% elemental phosphorus level, use solution at 120º F., time 20 min): 89.44%
- Relative Amylase Enzyme Activity (amylase; base formula, phosphonate at 0.1% elemental phosphorus level, use solution at 120º F., time 40 min): 90.60%
- Relative Amylase Enzyme Activity (amylase; base formula, phosphonate at 0.1% elemental phosphorus level, use solution at 120º F., time 60 min): 86.05%
- Relative Amylase Enzyme Activity (amylase; base formula, phosphonate at 0.1% elemental phosphorus level, use solution at 120º F., time 90 min): 90.47%
- Relative Amylase Enzyme Activity (amylase; base formula, phosphonate at 0.1% elemental phosphorus level, use solution at 120º F., time 120 min): 89.11%
- Relative Amylase Enzyme Activity (amylase; base formula, phosphonate at 0.1% elemental phosphorus level, use solution at 120º F., time 150 min): 88.36%
- Relative Amylase Enzyme Activity (amylase; base formula, phosphonate at 0.1% elemental phosphorus level, use solution at 120º F., time 180 min): 82.80%
- Relative Amylase Enzyme Activity (amylase; base formula, phosphonate at 0.1% elemental phosphorus level, use solution at 120º F., time 210 min): 84.45%
- Relative Amylase Enzyme Activity (amylase; base formula, phosphonate at 0.1% elemental phosphorus level, use solution at 120º F., time 240 min): 91.39%
